# Source: US20210330611A1, “THERAPY FOR NEUROLOGICAL DISEASES/DISORDERS” (priority 2020, published 2021)
# Where two headings read alike, the source gives them in different places.
# Tests used:
# [1] = test system: LPS-induced microglia activation; assay: Image-based assay of LPS-induced microglia activation (HTS and dose response); assay type: cell-based, rat; conditions: for inhibition at 10 µM: Rattus norvegicus, Microglia, read-out: LPS % inhibition; for LPS % inhibition: LPS stimulation
# primary rat microglia [2] = assay: Cell toxicity (dead cells, size <150 μm2) in coated fibrin (cFib) assay;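 further: share of dead cells sized under 150 µm2 at 10 µM in fibrin-stimulated microglia HTS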
# [3] = test system: fibrin-induced microglia activation; assay: Image-based assay of fibrin-induced microglia activation (HTS and dose response); assay type: cell-based, rat; conditions: for inhibition at 10 µM: Rattus norvegicus, Microglia, read-out: Fibrin % inhibition
# [4] = test system: fibrin- and LPS-induced microglia activation; assay: cells; assay type: cell-based, rat
# primary rat microglia [5] = assay: Cell toxicity (dead cells, size <150 μm2) in LPS assay
# [6] = primary microglia HTS, LPS-stimulated, cell size >800 μm^2 as marker of activation
# [7] = primary microglia HTS, 10 μM, fibrin assay, cell size <150 μm^2 as marker of toxicity
# [8] = primary microglia HTS, 10 μM, fibrin-stimulated, cell size >800 μm^2 as marker of activation
# [9] = HTS of 1907 compounds, quadrant by fibrin and LPS inhibition
# [10] = primary microglia HTS, 10 μM, LPS assay, cell size <150 μm^2 as marker of toxicity
# [11] = quadrant by fibrin and LPS inhibition in HTS of 1907 compounds
# [12] = primary HTS, LPS-stimulated primary microglia
# [13] = primary HTS, 10 μM, fibrin assay, dead cells size <150 μm2
# [14] = primary HTS, 10 μM, fibrin-stimulated primary microglia
# [15] = primary HTS, 10 μM, LPS assay, dead cells size <150 μm2
structure (smiles),measurement,setting,value
CNS(=O)(=O)Cc1ccc2[nH]cc(CCN(C)C)c2c1 [Sumatriptan],inhibition at 10 µM,[1]; [6],8%
same,Fibrin % cell toxicity,primary rat microglia [2]; [7],1%
same,inhibition at 10 µM,[3]; [8],-7%
same,Quadrant (FIG. 5b),[4]; [9],Q4
same,LPS % cell toxicity,primary rat microglia [5]; [10],0%
C[C@@H](O)[C@@H]1NC(=O)[C@H](CCCCN)NC(=O)[C@@H](Cc2c[nH]c3ccccc23)NC(=O)[C@H](Cc2ccccc2)NC(=O)[C@@H](NC(=O)[C@H](N)Cc2ccccc2)CSSC[C@@H](C(=O)N[C@H](CO)[C@@H](C)O)NC1=O [Octreotide],LPS % inhibition,"[1]; primary microglia HTS, increased cell size (>800 μm^2) as marker of activation",−5%
same,Fibrin % cell toxicity,"primary rat microglia [2]; primary microglia HTS, fibrin stimulation, decreased size (<150 μm^2) as marker of toxicity",1%
same,Fibrin % inhibition,"[3]; primary microglia HTS, fibrin stimulation, increased cell size (>800 μm^2) as marker of activation",3%
same,Quadrant (FIG. 5b),[4]; [11],Q4
same,LPS % cell toxicity,"primary rat microglia [5]; primary microglia HTS, LPS stimulation, decreased size (<150 μm^2) as marker of toxicity",1%
CNCCc1ccccn1 [Betahistine],inhibition at 10 µM,[1]; [12],13%
same,Fibrin % cell toxicity,primary rat microglia [2]; [13],1%
same,inhibition at 10 µM,[3]; [14],-29%
same,Quadrant (FIG. 5b),"[4]; primary HTS, 10 μM",Q4
same,LPS % cell toxicity,primary rat microglia [5]; [15],0%
COc1cc2c(cc1OC)[C@@]13CCN4CC5=CCO[C@H]6CC(=O)N2[C@H]1[C@H]6[C@H]5C[C@H]43 [Brucine],inhibition at 10 µM,[1]; [12],13%
same,Fibrin % cell toxicity,primary rat microglia [2]; [13],1%
same,inhibition at 10 µM,[3]; [14],6%
same,Quadrant (FIG. 5b),"[4]; primary HTS, 10 μM",Q4
same,LPS % cell toxicity,primary rat microglia [5]; [15],0%
OC[C@H]1O[C@H](O[C@]2(CCl)O[C@H](CCl)[C@@H](O)[C@@H]2O)[C@H](O)[C@@H](O)[C@H]1Cl [Sucralose],inhibition at 10 µM,[1]; [6],16%
same,Fibrin % cell toxicity,primary rat microglia [2]; [7],1%
same,inhibition at 10 µM,[3]; [8],0%
same,Quadrant (FIG. 5b),[4]; [9],Q4
same,LPS % cell toxicity,primary rat microglia [5]; [10],0%
CN(Cc1cc(Br)cc(Br)c1N)C1CCCCC1 [Bromhexine],inhibition at 10 µM,[1]; [12],11%
same,Fibrin % cell toxicity,primary rat microglia [2]; [13],0%
same,inhibition at 10 µM,[3]; [14],-16%
same,Quadrant (FIG. 5b),"[4]; primary HTS, 10 μM",Q4
same,LPS % cell toxicity,primary rat microglia [5]; [15],0%
C=C1/C(=C\C=C2/CCC[C@]3(C)[C@@H]([C@H](C)/C=C/[C@@H](O)C4CC4)CC[C@@H]23)C[C@@H](O)C[C@@H]1O [Calcipotriol],inhibition at 10 µM,[1]; [12],-8%
same,Fibrin % cell toxicity,primary rat microglia [2]; [13],1%
same,inhibition at 10 µM,[3]; [14],2%
same,Quadrant (FIG. 5b),"[4]; primary HTS, 10 μM",Q4
same,LPS % cell toxicity,primary rat microglia [5]; [15],0%
C=C1CC[C@H](O)C/C1=C/C=C1\CCC[C@]2(C)[C@@H]([C@H](C)CCCC(C)(C)O)CC[C@@H]12 [Calcidiol],inhibition at 10 µM,[1]; [12],8%
same,Fibrin % cell toxicity,primary rat microglia [2]; [13],1%
same,inhibition at 10 µM,[3]; [14],14%
same,Quadrant (FIG. 5b),"[4]; primary HTS, 10 μM",Q4
same,LPS % cell toxicity,primary rat microglia [5]; [15],0%
CC1(C)[C@@H](OC(=O)CCC(=O)O)CC[C@]2(C)[C@H]3C(=O)C=C4[C@@H]5C[C@@](C)(C(=O)O)CC[C@]5(C)CC[C@@]4(C)[C@]3(C)CC[C@@H]12 [Carbenoxolone Sodium],inhibition at 10 µM,[1]; [12],6%
same,Fibrin % cell toxicity,primary rat microglia [2]; [13],0%
same,inhibition at 10 µM,[3]; [14],16%
same,Quadrant (FIG. 5b),"[4]; primary HTS, 10 μM",Q4
same,LPS % cell toxicity,primary rat microglia [5]; [15],0%
CCCCCCCCCCCCCCCC(=O)OC[C@@H](NC(=O)C(Cl)Cl)[C@H](O)c1ccc([N+](=O)[O-])cc1 [Chloramphenicol Palmitate],inhibition at 10 µM,[1]; [12],9%
same,Fibrin % cell toxicity,primary rat microglia [2]; [13],1%
same,inhibition at 10 µM,[3]; [14],15%
same,Quadrant (FIG. 5b),"[4]; primary HTS, 10 μM",Q4
same,LPS % cell toxicity,primary rat microglia [5]; [15],1%
N=C(N)N/N=C/c1c(Cl)cccc1Cl [Guanabenz],LPS % inhibition,"[1]; primary microglia HTS, activation = cell size >800 μm2",−18%
same,Fibrin % cell toxicity,"primary rat microglia [2]; primary microglia HTS, fibrin stimulation, toxicity = cell size <150 μm2",1%
same,inhibition at 10 µM,"[3]; primary microglia HTS, fibrin stimulation, activation = cell size >800 μm2",-46%
same,Quadrant (FIG. 5b),[4]; [11],Q4
same,LPS % cell toxicity,"primary rat microglia [5]; primary microglia HTS, LPS stimulation, toxicity = cell size <150 μm2",0%
Cc1cc(C(C)(C)C)cc(C)c1CC1=NCCN1 [Xylometazoline],inhibition at 10 µM,[1]; [6],19%
same,Fibrin % cell toxicity,primary rat microglia [2]; [7],0%
same,inhibition at 10 µM,[3]; [8],-5%
same,Quadrant (FIG. 5b),[4]; [9],Q4
same,LPS % cell toxicity,primary rat microglia [5]; [10],1%
